Assay results as given in US20050245600A1, “Novel antimalarial agent” (Osaka Bioscience Institute, priority 2002, published 2005).
≈ marks a conversion by molar mass, not a printed value. Where two headings read alike, the source gives them in different places.

Legend:
[1] = system: FCR3 strain (resistant to cycloguanyl) of Plasmodium falciparum; assay: Plasmodium falciparum growth inhibition (Giemsa smear count, 48 hours); assay type: cell-based; settings: for IC50: Table 3, read-out: P. falciparum (IC50, μg/mL)
Method: FCR3 strain (resistant to cycloguanyl) of Plasmodium falciparum isolated in Gambia was used in the experiment to assess anti-malarial activity. Plasmodium falciparum synchronized to a ring phase by sorbitol treatment was injected in 50 μL 96 well plate. The hematocrit value of the culture liquid is 2% and the infection ratio was 0.55%. A substance to be tested was dissolved in DMSO and diluted with medium to an appropriate concentration before 50 μL of a test compound solution was added to the above 96 well plate to the total volume of 100 μL. The final concentration of DMSO added was 1%. Subsequently, after incubation was effected at 37° C. for 48 hours, a sumea film prepared on a slide glass was stained with Giemsa solution. The number of infected erythrocyte among 1000 erythrocytes was counted under an optical microscope. Percent inhibition of malaria parasite growth was calculated for percent infection obtained under the presence of DMSO only and that under the presence of the compound to be tested. Quinine was used as a positive control.

human cancer cell KB3-1 = assay: KB3-1 cell growth inhibition (MTT) to examine toxicity; assay type: cell-based; settings: for IC50: Table 3, read-out: KB3-1 (IC50, μg/mL); for Selective toxicity: IC50 (KB3-1)/IC50 (P. falciparum)
Method: To 100 μL (2×10^4/ml) of floating liquid of KB3-1 cells, 100 μL of test compound containing a liquid which was prepared by dissolving a test compound in DMSO and diluted to an appropriate concentration (final concentration of DMSO: 1%) was added. The mixture was incubated under 5% CO2 at 37° C. After 72 hours incubation, 25 μL of MTT reagent was added and incubation was effected for 3 hours before only medium was aspiratedly removed. To the medium 200 μL of DMSO was added, the resulting MTT folmazan was extracted and the amount of the dye was quantitatively measured by a calorimetric method (540 nm). The number of survival cell was counted from the amount of formed dye, and percent growth inhibition was determined to assess the toxic activity. Mitomycin C was used as a positive control.

[2] = system: Plasmodium berghei (NK65 line); assay: In vivo antimalarial activity, four days inhibition effect in infected mouse; settings: ICR mouse; for Inhibition (%) / Averaged parasite blood (%): fourth day; for Averaged parasite blood (%): average ± SD of 5 mice
Method: Four weeks old male mouse was bred at 25° C. under the condition of 12 hours light and 12 hours dark, and used in the assay.
Blood was corrected with a syringe from the heart of a donor mouse with 15 % of parasitaemia. To this blood, trisodium citrate aqueous solution was added in one seventh by volume to prevent coagulation of blood. The resulting solution was diluted with 0.9% aqueous sodium chloride solution so that the final concentration of infected blood cells is 1×10^7 per 0.2 ml. […]
To mouse (one group: 5), 0.2 ml of the infected erythrocytes was administered through tail vein. After 2 hours, the CMC solution (0.2 ml) of the respective concentration prepared above was orally administered. Starting with this time as 0 day, the solution was administered every day till a third day and infection ratio was examined on a fourth day. The infection ratio was determined by collecting blood from mouse tail, preparing smear, and counting infected erythrocytes using a microscope. The infection ratio of control mouse (5 infected mice administered only by the 0.5% CMC solution) was about 28% on the fourth day.
Percent growth inhibition of parasites by test compound was calculated from the following formula: Percent growth inhibition of parasites=(1−averaged infection ratio of mice treated with test compound/averaged infection ratio of control mice)×100
Life prolonging effect by test compound (T/C) was calculated from the following equation. Life Prolonging Effect (T/C)=averaged number of subsistence days of mouse treated by test compound/averaged number of subsistence days of control mouse

[3] = 25 mg/kg oral, day 0 to third day
[4] = 50 mg/kg oral, day 0 to third day
[5] = 100 mg/kg oral, day 0 to third day
[6] = 200 mg/kg oral, day 0 to third day

O=C1C[C@@H](c2ccc(O)cc2)Oc2c1c(O)cc(O)c2[C@H]1C(=O)c2c(O)cc(O)cc2O[C@@H]1c1ccc(O)cc1 [GK-1, 2S,3R,2′S-5,7,5′,7′-tetrahydroxy-2,2′-bis-(4-hydroxyphenyl)-2,3,2′,3′-tetrahydoro-[3,8′]bichromenyl-4,4′-dione]
IC50 [1]: 0.35 µg/mL (≈ 0.645 µM)
IC50 (human cancer cell KB3-1; Homo sapiens, KB 3-1): 27 µg/mL (≈ 49.8 µM)
Selective toxicity (human cancer cell KB3-1): 77

O=C1c2c(O)cc(O)cc2O[C@H](c2ccc(O)cc2)[C@H]1c1c(O)cc(O)c2c1O[C@H](c1ccc(O)cc1)[C@@H](O)C2=O [GK-2, 2S,3R,2′S,3′R-5,7,3′,5′,7′-pentahydroxy-2,2′-bis-(4-hydroxyphenyl)-2,3,2′,3′-tetrahydro-[3,8′]bichromenyl-4,4′-dione]
inhibition at 0.5 µg/mL ([1]; Table 2, 0.5 μg/mL, read-out: Inhibition of P. falciparum %): 70%
inhibition at 5 µg/mL ([1]; Table 2, 5 μg/mL, read-out: Inhibition of P. falciparum %): 65%
IC50 [1]: 0.09 µg/mL (≈ 0.161 µM)
inhibition at 5 µg/mL (human cancer cell KB3-1; Homo sapiens, KB 3-1, Table 2, 5 μg/mL): 22%
inhibition at 50 µg/mL (human cancer cell KB3-1; Homo sapiens, KB 3-1, Table 2, 50 μg/mL): 10%
IC50 (human cancer cell KB3-1; Homo sapiens, KB 3-1): > 100 µg/mL
Selective toxicity (human cancer cell KB3-1): >1100
Averaged subsistence days [2, 3]: 9.5 ± 1.7 days
T/C (life prolonging effect) [2, 3]: 119
Inhibition (%) [2, 3]: 40%
Averaged parasite blood (%) [2, 3]: 17.3 ± 3.4%
Averaged subsistence days [2, 4]: 10.0 ± 0.0 days
T/C (life prolonging effect) [2, 4]: 125
Inhibition (%) [2, 4]: 43%
Averaged parasite blood (%) [2, 4]: 16.6 ± 2.4%
Averaged subsistence days [2, 5]: 10.0 ± 0.0 days
T/C (life prolonging effect) [2, 5]: 125
Inhibition (%) [2, 5]: 52%
Averaged parasite blood (%) [2, 5]: 13.9 ± 2.4%
Averaged subsistence days [2, 6]: 11.0 ± 0.7 days
T/C (life prolonging effect) [2, 6]: 134
Inhibition (%) [2, 6]: 60%
Averaged parasite blood (%) [2, 6]: 11.5 ± 1.2%

O=C1c2c(O)cc(O)cc2O[C@H](c2ccc(O)cc2)[C@H]1c1c(O)cc(O)c2c1O[C@H](c1ccc(O)c(O)c1)[C@@H](O)C2=O [GK-3, 2S,3R,2′S,3′R-2′-(3,4-dihydroxyphenyl)-5,7,3′,5′,7′-pentahydroxy-2-(4-hydroxyphenyl)-2,3,2′,3′-tetrahydro-[3,8′]bichromenyl-4,4′-dione]
IC50 [1]: 0.12 µg/mL (≈ 0.209 µM)
IC50 (human cancer cell KB3-1; Homo sapiens, KB 3-1): > 100 µg/mL
Selective toxicity (human cancer cell KB3-1): >830

O=C1c2c(O)cc(O)c([C@@H]3C(=O)c4c(O)cc(O)cc4O[C@H]3c3ccc(O)cc3)c2O[C@H](c2ccc(O)cc2)[C@H]1O [GK-4, 2R,3S,2′S,3′R-5,7,3′,5′,7′-pentahydroxy-2,2′-bis-(4-hydroxyphenyl)-2,3,2′,3′-tetrahydro-[3,8′]bichromenyl-4,4′-dione]
IC50 [1]: 1.1 µg/mL (≈ 1.97 µM)
IC50 (human cancer cell KB3-1; Homo sapiens, KB 3-1): > 100 µg/mL
Selective toxicity (human cancer cell KB3-1): >91

C[C@@H]1CC[C@H]2[C@@H](C)C(=O)O[C@@H]3O[C@@]4(C)CC[C@@H]1[C@]32OO4 [artemisinin, reference compound]
Averaged subsistence days ([2]; 15 mg/kg): 10.3 ± 2.3 days
T/C (life prolonging effect) ([2]; 15 mg/kg): 129
Inhibition (%) ([2]; 15 mg/kg): 54%
Averaged parasite blood (%) ([2]; 15 mg/kg): 13.3 ± 1.6%

C=C[C@H]1C[N@@]2CC[C@H]1C[C@H]2[C@H](O)c1ccnc2ccc(OC)cc12 [quinine, reference compound]
inhibition at 0.033 µg/mL ([1]; Table 1 control, 33 ng/mL, read-out: P. falciparum Growth Inhibition (%)): 73%
inhibition at 0.1 µg/mL ([1]; Table 1 control, 100 ng/mL, read-out: P. falciparum Growth Inhibition (%)): 90%
inhibition at 0.033 µg/mL ([1]; Table 2 control, 0.033 μg/mL, read-out: Inhibition of P. falciparum %): 62%
inhibition at 0.1 µg/mL ([1]; Table 2 control, 0.1 μg/mL, read-out: Inhibition of P. falciparum %): 90%
inhibition at 0.033 µg/mL ([1]; Table 3 control, 0.033 μg/mL, read-out: P. falciparum inhibition): 36%
inhibition at 0.1 µg/mL ([1]; Table 3 control, 0.1 μg/mL, read-out: P. falciparum inhibition): 82%
